The numbers were not newly measured in patent US11963942B2, “Oral taxane compositions and methods” (Athenex HK Innovative Limited, priority 2015, dated 2024), which cites them from elsewhere.

The data set addresses MDR1 (ABCB1) (Homo sapiens, UniProt P08183). Conditions: Kwak et al., Eur. J. Pharm. 627, 92-98 (2010).

Chain of MDR1 (ABCB1) (P08183 whole entry, species assumed): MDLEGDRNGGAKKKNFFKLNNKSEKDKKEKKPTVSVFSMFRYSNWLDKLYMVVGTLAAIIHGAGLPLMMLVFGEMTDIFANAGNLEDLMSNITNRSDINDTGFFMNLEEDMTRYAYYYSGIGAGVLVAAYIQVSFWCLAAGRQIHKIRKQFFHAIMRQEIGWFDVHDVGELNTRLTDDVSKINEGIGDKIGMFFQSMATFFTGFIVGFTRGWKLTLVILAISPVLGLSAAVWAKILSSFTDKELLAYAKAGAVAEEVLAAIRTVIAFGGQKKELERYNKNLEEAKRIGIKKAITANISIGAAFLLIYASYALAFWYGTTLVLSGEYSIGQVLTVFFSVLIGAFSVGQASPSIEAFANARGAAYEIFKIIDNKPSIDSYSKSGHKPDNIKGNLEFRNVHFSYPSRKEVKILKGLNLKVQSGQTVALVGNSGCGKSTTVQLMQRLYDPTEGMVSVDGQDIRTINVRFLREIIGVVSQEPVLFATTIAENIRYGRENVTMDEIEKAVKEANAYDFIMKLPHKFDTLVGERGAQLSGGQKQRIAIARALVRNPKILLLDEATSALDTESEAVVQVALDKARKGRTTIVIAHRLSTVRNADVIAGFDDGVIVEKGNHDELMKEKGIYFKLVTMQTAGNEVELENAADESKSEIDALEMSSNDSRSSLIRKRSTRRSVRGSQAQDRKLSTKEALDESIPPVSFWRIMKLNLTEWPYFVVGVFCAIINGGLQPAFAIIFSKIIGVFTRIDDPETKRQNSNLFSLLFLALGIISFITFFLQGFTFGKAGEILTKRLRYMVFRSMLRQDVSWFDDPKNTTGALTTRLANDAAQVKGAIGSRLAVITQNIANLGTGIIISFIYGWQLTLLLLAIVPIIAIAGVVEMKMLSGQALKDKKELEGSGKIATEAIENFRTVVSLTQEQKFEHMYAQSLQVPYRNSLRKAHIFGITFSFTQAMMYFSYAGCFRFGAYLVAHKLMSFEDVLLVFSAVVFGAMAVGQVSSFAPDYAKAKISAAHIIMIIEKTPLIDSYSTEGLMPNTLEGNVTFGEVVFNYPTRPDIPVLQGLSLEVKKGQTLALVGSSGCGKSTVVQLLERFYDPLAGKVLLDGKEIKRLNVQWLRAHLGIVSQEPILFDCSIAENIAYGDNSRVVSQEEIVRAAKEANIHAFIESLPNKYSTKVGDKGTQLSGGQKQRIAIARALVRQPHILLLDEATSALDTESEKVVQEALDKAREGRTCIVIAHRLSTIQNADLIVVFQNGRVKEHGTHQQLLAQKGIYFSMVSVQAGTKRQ

`COc1cc2c(cc1OC)CN(CCc1ccc(-n3nnc(-c4cc(OC)c(OC)cc4NC(=O)c4cc(=O)c5ccccc5o4)n3)cc1)CC2` [HM30181, 4-oxo-4H-chromene-2-carboxylic acid [2-(2-(4-[2-(6,7-dimethoxy-3,4-dihydro-1H-isoquinolin-2-yl)-ethyl]-phenyl)-2H-tetrazol-5-yl)-4,5-dimethoxy-phenyl]-amide]: the “potency compared with cyclosporine A” value is given as “more potent than cyclosporine A”.
